Here are results for 31 compounds from patent US20120029190A1, “COMPOUNDS FOR TREATING DISORDERS MEDIATED BY METABOTROPIC GLUTAMATE RECEPTOR 5, AND METHODS OF USE THEREOF” (priority 2009, published 2012).

A value given as a limit tells only on which side of the number the result lay.

T1 sequence (P41594 21-1212): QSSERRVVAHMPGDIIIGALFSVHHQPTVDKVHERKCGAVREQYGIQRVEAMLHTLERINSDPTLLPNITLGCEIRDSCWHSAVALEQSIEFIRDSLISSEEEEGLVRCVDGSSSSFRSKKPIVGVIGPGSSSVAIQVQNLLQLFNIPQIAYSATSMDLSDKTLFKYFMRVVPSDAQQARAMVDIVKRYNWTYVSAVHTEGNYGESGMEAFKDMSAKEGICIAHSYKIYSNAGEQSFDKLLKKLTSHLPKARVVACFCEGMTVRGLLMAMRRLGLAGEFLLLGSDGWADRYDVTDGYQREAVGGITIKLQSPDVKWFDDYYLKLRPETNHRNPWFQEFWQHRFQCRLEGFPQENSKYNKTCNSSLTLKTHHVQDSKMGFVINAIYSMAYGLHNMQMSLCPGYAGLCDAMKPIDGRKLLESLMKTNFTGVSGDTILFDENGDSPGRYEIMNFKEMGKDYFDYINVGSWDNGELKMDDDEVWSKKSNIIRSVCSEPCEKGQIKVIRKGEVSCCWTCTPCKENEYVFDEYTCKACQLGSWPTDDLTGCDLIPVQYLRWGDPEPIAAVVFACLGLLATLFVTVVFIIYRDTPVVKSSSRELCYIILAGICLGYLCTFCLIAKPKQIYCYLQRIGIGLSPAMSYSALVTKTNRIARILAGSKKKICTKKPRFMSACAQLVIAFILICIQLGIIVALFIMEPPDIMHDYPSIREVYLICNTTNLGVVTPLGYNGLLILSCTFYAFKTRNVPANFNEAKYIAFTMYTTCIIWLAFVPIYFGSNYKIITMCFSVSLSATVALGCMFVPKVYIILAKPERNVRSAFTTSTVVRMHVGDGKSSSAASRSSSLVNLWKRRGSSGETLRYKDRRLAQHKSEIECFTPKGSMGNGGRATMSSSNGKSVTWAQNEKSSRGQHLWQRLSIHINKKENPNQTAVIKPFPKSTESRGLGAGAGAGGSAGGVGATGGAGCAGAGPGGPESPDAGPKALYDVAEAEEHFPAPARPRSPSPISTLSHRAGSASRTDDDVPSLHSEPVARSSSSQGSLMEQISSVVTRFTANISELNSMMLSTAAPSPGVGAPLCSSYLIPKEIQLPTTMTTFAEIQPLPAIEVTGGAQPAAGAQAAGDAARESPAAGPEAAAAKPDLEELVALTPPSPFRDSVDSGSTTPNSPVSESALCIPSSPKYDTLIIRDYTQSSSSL

The first experiment has as its target T1, human recombinant mGluR5 receptor (Homo sapiens, UniProt P41594).
T1 construct: expressed in transfected cells; expression induced with doxycycline
As to the kind of experiment: mGluR5 in vitro functional assay (aequorin cell line, inhibition of glutamate EC80 response). The format is cell-based.
Conditions: not given
The protocol:
B. mGluR5 In Vitro Functional Assay
The functional assay utilized an aequorin cell line expressing human recombinant mGluR5 receptor, an inducible cell line that expresses the human receptor under the control of a promoter induced by doxycycline.
mGluR5 cells in mid-log phase, grown 18 hours prior to the test in antibiotic-free media supplemented with doxycycline (600 ng/mL), were detached by gentle flushing with PBS-EDTA ([…]). The cells were recovered by centrifugation and resuspended in assay buffer (HBSS, […], 3 ug/mL glutamate-pyruvate transaminase, […] MEM sodium pyruvate, 0.1% BSA protease-free). Cells were incubated at room temperature for at least 4 hours with Coelenterazine h (Molecular Probes). The cell suspension (60 uL) containing the test compound was mixed with a solution of reference agonist (30 uL) at its EC80, following an incubation of 3 min. after the first injection. The resulting emission of light was recorded using a Hamamatsu Functional Drug Screening System 6000 (FDSS 6000). To standardize the emission of recorded light (determination of the “100% signal’) across plates and across different experiments, some of the wells contained 100 uM digitonin or a saturating concentration (20 mM) of ATP. Plates also contained the reference agonist (glutamate) at a concentration equivalent to the EC80 obtained during assay validation. Percentages of inhibition were calculated on the basis of the activation induced by the reference agonist at a concentration equal to the EC80. Dose-response data were analyzed with XLFit (IDBS) software using nonlinear regression applied to a sigmoidal dose-response model.
As a reminder, the IC50 is the point on the concentration scale where inhibition reaches its midpoint. With `N#Cc1ccc(N2CCc3oc(-c4ccccn4)nc3C2)cc1F` [Compound 36, 2-Fluoro-4-(2-(pyridin-2-yl)-6,7-dihydrooxazolo[4,5-c]pyridin-5(4H)-yl)benzonitrile], the IC50 is above 10 µM.

Still in this experiment, the particulars now being: Table 1; aequorin cell line expressing human mGluR5, reference agonist glutamate at EC80; obtained in duplicate; read-out: IC50.
Regarding `N#Cc1cc(N2CCc3oc(-c4ccccn4)nc3C2)cc(C(F)(F)F)c1` [Compound 32, 3-(2-(Pyridin-2-yl)-6,7-dihydrooxazolo[4,5-c]pyridin-5(4H)-yl)-5-(trifluoromethyl)benzonitrile], the IC50 is below 1 µM.

Consider `N#Cc1cc(F)cc(N2CCc3oc(-c4ccc(F)cn4)nc3C2)c1` [Compound 33, 3-Fluoro-5-(2-(5-fluoropyridin-2-yl)-6,7-dihydrooxazolo[4,5-c]pyridin-5(4H)-yl)benzonitrile], for which the IC50 was below 1 µM. For `N#Cc1cccc(CN2CCc3oc(-c4ccccn4)nc3C2)c1` [Compound 34], the IC50 was below 1 µM.

For the compound `N#Cc1cc(F)cc(CN2CCc3oc(-c4ccccn4)nc3C2)c1` [Compound 35, 3-Fluoro-5-((2-(pyridin-2-yl)-6,7-dihydrooxazolo-[4,5-c]pyridin-5(4H)-yl)methyl)benzonitrile], the IC50 was below 10 µM. Turning to `N#Cc1cccnc1N1CCc2oc(-c3ccccc3)nc2C1` [Compound 37, 2-(2-Phenyl-6,7-dihydrooxazolo[4,5-c]pyridin-5(4H)-yl)nicotinonitrile], the IC50 is below 10 µM. Same read-out and setting: as for `c1ccc(-c2nc3c(o2)CCN(c2ccccn2)C3)cc1` [Compound 38, 2-Phenyl-5-(pyridin-2-yl)-4,5,6,7-tetrahydrooxazolo-[4,5-c]pyridine], the figure is below 10 µM; as for `N#Cc1cccnc1N1CCc2oc(-c3cccc(Cl)c3)nc2C1` [Compound 39, 2-(2-(3-Chlorophenyl)-6,7-dihydrooxazolo[4,5-c]pyridin-5(4H)-yl)nicotinonitrile], below 1 µM.

Turning to `Clc1cccc(-c2nc3c(o2)CCN(c2ccccn2)C3)c1` [Compound 40, 2-(3-Chlorophenyl)-5-(pyridin-2-yl)-4,5,6,7-tetrahydrooxazolo[4,5-c]pyridine], the IC50 is below 1 µM. On the same count and under the same terms, as for `Clc1cccc(-c2nc3c(o2)CCN(c2cnccn2)C3)c1` [Compound 41, 2-(3-Chlorophenyl)-5-(pyrazin-2-yl)-4,5,6,7-tetrahydrooxazolo[4,5-c]pyridine], the figure is below 1 µM; as for `COc1ccc(-c2nc3c(o2)CCN(c2cnccn2)C3)cc1` [Compound 42, 2-(4-Methoxyphenyl)-5-(pyrazin-2-yl)-4,5,6,7-tetrahydrooxazolo[4,5-c]pyridine], above 10 µM; as for `COc1ccc(-c2nc3c(o2)CCN(c2ncccc2C#N)C3)cc1` [Compound 43, 2-(2-(4-Methoxyphenyl)-6,7-dihydrooxazolo[4,5-c]pyridin-5(4H)-yl)nicotinonitrile], above 10 µM. Still for that read-out and setting: as for `N#Cc1cccnc1N1CCc2oc(-c3ccc(C(F)(F)F)cc3)nc2C1` [Compound 44, 2-(2-(4-(Trifluoromethyl)phenyl)-6,7-dihydrooxazolo[4,5-c]pyridin-5(4H)-yl)nicotinonitrile], the figure is above 10 µM; as for `FC(F)(F)c1ccc(-c2nc3c(o2)CCN(c2cnccn2)C3)cc1` [Compound 45, 5-(Pyrazin-2-yl)-2-(4-(trifluoromethyl)phenyl)-4,5,6,7-tetrahydrooxazolo[4,5-c]pyridine], above 10 µM. With `N#Cc1cccnc1N1CCc2oc(-c3ccc(F)cc3)nc2C1` [Compound 46, 2-(2-(4-Fluorophenyl)-6,7-dihydrooxazolo[4,5-c]pyridin-5(4H)-yl)nicotinonitrile], the IC50 is above 10 µM. As to `Fc1ccc(-c2nc3c(o2)CCN(c2cnccn2)C3)cc1` [Compound 47, 2-(4-Fluorophenyl)-5-(pyrazin-2-yl)-4,5,6,7-tetrahydrooxazolo[4,5-c]pyridine], the IC50 was below 10 µM. On to `Fc1ccc(-c2nc3c(o2)CCN(c2ccccn2)C3)cc1` [Compound 48, 2-(4-Fluorophenyl)-5-(pyridin-2-yl)-4,5,6,7-tetrahydrooxazolo[4,5-c]pyridine], for which the IC50 was below 10 µM. Turning to `c1ccc(-c2nc3c(o2)CCN(c2cnccn2)C3)cc1` [Compound 49, 2-Phenyl-5-(pyrazin-2-yl)-4,5,6,7-tetrahydrooxazolo[4,5-c]pyridine], the IC50 is below 10 µM. For the compound `Clc1cccc(-c2nc3c(o2)CCN(Cc2ccccn2)C3)c1` [Compound 50, 2-(3-Chlorophenyl)-5-(pyridin-2-ylmethyl)-4,5,6,7-tetrahydrooxazolo[4,5-c]pyridine], the IC50 is below 10 µM. For `Clc1cccc(-c2nc3c(o2)CCN(c2cccnc2)C3)c1` [Compound 51, 2-(3-Chlorophenyl)-5-(pyridin-3-yl)-4,5,6,7-tetrahydrooxazolo[4,5-c]pyridine], the IC50 was below 1 µM. Take `N#Cc1nccnc1N1CCc2oc(-c3ccccc3)nc2C1` [Compound 52, 3-(2-Phenyl-6,7-dihydrooxazolo[4,5-c]pyridin-5(4H)-yl)pyrazine-2-carbonitrile]: the IC50 was below 10 µM.

As to `N#Cc1nccnc1N1CCc2oc(-c3cccc(Cl)c3)nc2C1` [Compound 53, 3-(2-(3-Chlorophenyl)-6,7-dihydrooxazolo[4,5-c]pyridin-5(4H)-yl)pyrazine-2-carbonitrile], the IC50 is below 1 µM.

Take `O=C(c1ccc(F)cc1)N1CCc2oc(-c3ccc(F)cc3)nc2C1` [Compound 54, (4-Fluorophenyl)(2-(4-fluorophenyl)-6,7-dihydrooxazolo[4,5-c]pyridin-5(4H)-yl)methanone]: the IC50 was below 10 µM. For the compound `c1ccc(-c2nc3c(o2)CCN(c2nccs2)C3)nc1` [Compound 55, 2-(Pyridin-2-yl)-5-(thiazol-2-yl)-4,5,6,7-tetrahydrooxazolo[4,5-c]pyridine], the IC50 was below 1 µM. For `COc1cc(F)cc(N2CCc3oc(-c4ccccn4)nc3C2)c1` [Compound 56, 5-(3-Fluoro-5-methoxyphenyl)-2-(pyridin-2-yl)-4,5,6,7-tetrahydrooxazolo[4,5-c]pyridine], the IC50 is below 1 µM. On the same count and under the same terms, as for `N#Cc1cc(N2CCc3oc(-c4ccccn4)nc3C2)ccc1F` [Compound 57, 2-Fluoro-5-(2-(pyridin-2-yl)-6,7-dihydrooxazolo[4,5-c]pyridin-5(4H)-yl)benzonitrile], the figure is below 10 µM; as for `Cc1cccc(-c2nc3c(o2)CN(c2ccccn2)CC3)c1` [Compound 58, 5-(Pyridin-2-yl)-2-m-tolyl-4,5,6,7-tetrahydrooxazolo[5,4-c]pyridine], below 1 µM; as for `Cc1cccc(-c2nc3c(o2)CN(c2ncccc2C#N)CC3)c1` [Compound 59, 2-(2-m-Tolyl-6,7-dihydrooxazolo[5,4-c]pyridin-5(4H)-yl)nicotinonitrile], below 1 µM. `Cc1cccc(-c2nc3c(o2)CCN(c2ccccn2)C3)c1` [Compound 60, 5-(Pyridin-2-yl)-2-m-tolyl-4,5,6,7-tetrahydrooxazolo-[4,5-c]pyridine]: the IC50 was below 1 µM. The same measure, in the same setting: as for `Cc1cccc(-c2nc3c(o2)CCN(c2ncccc2C#N)C3)c1` [Compound 61, 2-(2-m-Tolyl-6,7-dihydrooxazolo[4,5-c]pyridin-5(4H)-yl)nicotinonitrile], the figure is below 1 µM. On the same count and under the same terms, under `N#Cc1cccc(-c2nc3c(o2)CCN(c2ccccn2)C3)c1` [Compound 62, 3-(5-(Pyridin-2-yl)-4,5,6,7-tetrahydrooxazolo[4,5-c]pyridin-2-yl)benzonitrile] stands above 10 µM.
